Experiments:
[1] = Solubility of amines and amine mixtures in acrylate resins; type: physicochemical; settings: for Solubility (% w/w at ~15-20° C.): stays in solution at least 7 days, above 10% w/w not tested; for Dissolution of the solid material: at 1% w/w in the acrylate resins
Description: This example illustrates the improved solubility of the co-initiator mixtures compared to single component amine co-initiator compositions, illustrating the benefit of providing a composition comprising both the compound of Formula I and the ancillary amine. For comparison, the solubility of amine mixtures as provided by this invention, of which mixtures AM1-AM6 are representative examples, were tested alongside single component formulations comprising only the amines AC1-AC5.
Mixtures of amine synergists were prepared using one of the methods described above.
The solid amines AC1-AC5 or mixtures of amines AM1-AM6 were added portion-wise in 1% w/w portions to stirred 5.0 g samples of the following acrylate resins and the samples were stirred at 15-20° C. until all solid material was completely dissolved: HDDA (1,6-hexanediol diacrylate), TMPTA (trimethylolpropane triacrylate), TPGDA (tripropyleneglycol diacrylate). At the concentrations given below (Table 2a-2k) all solids remained in solution for at least 7 days at 15-20° C. unless otherwise stated. In cases where the solids began to crystallise out of solution within this time the mixtures were warmed to approx. 40° C. to re-dissolve the solids and the concentrations were adjusted to the given values by the addition of extra resin, whereupon the solids remained dissolved at the adjusted concentration for at least 7 days at 15-20° C. Solubility above 10% w/w was not tested in any case. The weight % is based on the total weight of the mixture.

[2] = UV curing experiments: passes under Hg lamp to tack-free / thumb-twist cure; settings: approx. 16 m/min belt speed, 0.20 g amine in 4.0 g resin with 1% 2-ITX and 4% BP
Description: The following example illustrates the high curing speed of co-initiators which contain the compound of Formula I and the ancillary amine. For comparison, the commercially available amine co-initiators SpeedCure EDB (Lambson Limited) and diffusion-hindered polymeric amine SpeedCure 7040 (Lambson Limited) were also tested. Additionally, the pure amines AC1-AC5 were tested alongside the mixtures provided by this invention, of which the mixtures AM1-AM6 are representative examples.
The amine co-initiators or co-initiator mixtures (0.20 g) were added to a resin mixture (4.0 g) containing 1% w/w SpeedCure 2-ITX (Lambson Limited) and 4% w/w SpeedCure BP (Lambson Limited) in 70:30 ethoxylated bisphenol A dimethacrylate (EO/phenol 10):trimethylolpropane triacrylate with stirring at 15-20° C. until all solid material had dissolved.
Formulations were cured at 6 and 24 μm film thicknesses under Hg lamp using a Dymax curing instrument with approx. 16 m/min belt speed. The number of passes under the lamp required to give a ‘tack-free’ (TF) coating (as determined when the surface of the coating no longer feels sticky when lightly touched) or full cure as determined by the ‘thumb-twist’ test (TT) (i.e. until no visible mark is made when a thumb is pressed down firmly onto the coating with a twisting motion) are given in Table 3.

[3] = in HDDA (1,6-hexanediol diacrylate)
[4] = in TMPTA (trimethylolpropane triacrylate)
[5] = in TPGDA (tripropyleneglycol diacrylate)

| SMILES | Solubility (% w/w at ~15-20° C.) [1, 3] [% w/w] | Solubility (% w/w at ~15-20° C.) [1, 4] [% w/w] | Solubility (% w/w at ~15-20° C.) [1, 5] [% w/w] | No. of Passes Required, TF (tack-free) ([2]; 6 μm film) [passes] | No. of Passes Required, TT (thumb-twist, full cure) ([2]; 6 μm film) [passes] | No. of Passes Required, TF (tack-free) ([2]; 24 μm film) [passes] | No. of Passes Required, TT (thumb-twist, full cure) ([2]; 24 μm film) [passes] | Time until solid crystallised out of solution ([1]; initially dissolved at 2% w/w, all three resins) [h] | Dissolution of the solid material [1] |
| --- | --- | --- | --- | --- | --- | --- | --- | --- | --- |
| CCC(COCC(CC)(COC(=O)c1ccc(N(C)C)cc1)COC(=O)c1ccc(N(C)C)cc1)(COC(=O)c1ccc(N(C)C)cc1)COC(=O)c1ccc(N(C)C)cc1 [AC1] | 5 | 4 | 3 | 1 | 5 | 1 | 2 | – | – |
| CCC(CO)(COCC(CC)(COC(=O)c1ccc(N(C)C)cc1)COC(=O)c1ccc(N(C)C)cc1)COC(=O)c1ccc(N(C)C)cc1 (stereo not drawn) [AC2] | 10 | 10 | 10 | 1 | 6 | 1 | 2 | – | – |
| CCC(COC(=O)c1ccc(N(C)C)cc1)(COC(=O)c1ccc(N(C)C)cc1)COC(=O)c1ccc(N(C)C)cc1 [AC3] | <2 | <2 | <2 | – | – | – | – | ≤ 24 | – |
| CN(C)c1ccc(C(=O)OCC(COC(=O)c2ccc(N(C)C)cc2)(COC(=O)c2ccc(N(C)C)cc2)COC(=O)c2ccc(N(C)C)cc2)cc1 [AC4] | <1 | <1 | <1 | – | – | – | – | – | would not dissolve |
| CN(C)c1ccc(C(=O)OCC(COC(=O)c2ccc(N(C)C)cc2)OC(=O)c2ccc(N(C)C)cc2)cc1 [AC5] | <1 | <1 | <1 | – | – | – | – | – | would not dissolve |
| CCOC(=O)c1ccc(N(C)C)cc1 [SpeedCure EDB, ethyl 4-(dimethylamino)benzoate, reference compound] | – | – | – | 1 | 6 | 1 | 2 | – | – |

— US12146010B2, “Amine co-initiator mixture” (Arkema UK Limited, priority 2019, dated 2024)
